Results on eleven compounds are retold here after patent publication US9382258B2, “Agents for treating pain and uses thereof” (AbbVie Inc., priority 2012, dated 2016).

Each structure is given as a SMILES string.

T1 sequence (Q00975 whole entry): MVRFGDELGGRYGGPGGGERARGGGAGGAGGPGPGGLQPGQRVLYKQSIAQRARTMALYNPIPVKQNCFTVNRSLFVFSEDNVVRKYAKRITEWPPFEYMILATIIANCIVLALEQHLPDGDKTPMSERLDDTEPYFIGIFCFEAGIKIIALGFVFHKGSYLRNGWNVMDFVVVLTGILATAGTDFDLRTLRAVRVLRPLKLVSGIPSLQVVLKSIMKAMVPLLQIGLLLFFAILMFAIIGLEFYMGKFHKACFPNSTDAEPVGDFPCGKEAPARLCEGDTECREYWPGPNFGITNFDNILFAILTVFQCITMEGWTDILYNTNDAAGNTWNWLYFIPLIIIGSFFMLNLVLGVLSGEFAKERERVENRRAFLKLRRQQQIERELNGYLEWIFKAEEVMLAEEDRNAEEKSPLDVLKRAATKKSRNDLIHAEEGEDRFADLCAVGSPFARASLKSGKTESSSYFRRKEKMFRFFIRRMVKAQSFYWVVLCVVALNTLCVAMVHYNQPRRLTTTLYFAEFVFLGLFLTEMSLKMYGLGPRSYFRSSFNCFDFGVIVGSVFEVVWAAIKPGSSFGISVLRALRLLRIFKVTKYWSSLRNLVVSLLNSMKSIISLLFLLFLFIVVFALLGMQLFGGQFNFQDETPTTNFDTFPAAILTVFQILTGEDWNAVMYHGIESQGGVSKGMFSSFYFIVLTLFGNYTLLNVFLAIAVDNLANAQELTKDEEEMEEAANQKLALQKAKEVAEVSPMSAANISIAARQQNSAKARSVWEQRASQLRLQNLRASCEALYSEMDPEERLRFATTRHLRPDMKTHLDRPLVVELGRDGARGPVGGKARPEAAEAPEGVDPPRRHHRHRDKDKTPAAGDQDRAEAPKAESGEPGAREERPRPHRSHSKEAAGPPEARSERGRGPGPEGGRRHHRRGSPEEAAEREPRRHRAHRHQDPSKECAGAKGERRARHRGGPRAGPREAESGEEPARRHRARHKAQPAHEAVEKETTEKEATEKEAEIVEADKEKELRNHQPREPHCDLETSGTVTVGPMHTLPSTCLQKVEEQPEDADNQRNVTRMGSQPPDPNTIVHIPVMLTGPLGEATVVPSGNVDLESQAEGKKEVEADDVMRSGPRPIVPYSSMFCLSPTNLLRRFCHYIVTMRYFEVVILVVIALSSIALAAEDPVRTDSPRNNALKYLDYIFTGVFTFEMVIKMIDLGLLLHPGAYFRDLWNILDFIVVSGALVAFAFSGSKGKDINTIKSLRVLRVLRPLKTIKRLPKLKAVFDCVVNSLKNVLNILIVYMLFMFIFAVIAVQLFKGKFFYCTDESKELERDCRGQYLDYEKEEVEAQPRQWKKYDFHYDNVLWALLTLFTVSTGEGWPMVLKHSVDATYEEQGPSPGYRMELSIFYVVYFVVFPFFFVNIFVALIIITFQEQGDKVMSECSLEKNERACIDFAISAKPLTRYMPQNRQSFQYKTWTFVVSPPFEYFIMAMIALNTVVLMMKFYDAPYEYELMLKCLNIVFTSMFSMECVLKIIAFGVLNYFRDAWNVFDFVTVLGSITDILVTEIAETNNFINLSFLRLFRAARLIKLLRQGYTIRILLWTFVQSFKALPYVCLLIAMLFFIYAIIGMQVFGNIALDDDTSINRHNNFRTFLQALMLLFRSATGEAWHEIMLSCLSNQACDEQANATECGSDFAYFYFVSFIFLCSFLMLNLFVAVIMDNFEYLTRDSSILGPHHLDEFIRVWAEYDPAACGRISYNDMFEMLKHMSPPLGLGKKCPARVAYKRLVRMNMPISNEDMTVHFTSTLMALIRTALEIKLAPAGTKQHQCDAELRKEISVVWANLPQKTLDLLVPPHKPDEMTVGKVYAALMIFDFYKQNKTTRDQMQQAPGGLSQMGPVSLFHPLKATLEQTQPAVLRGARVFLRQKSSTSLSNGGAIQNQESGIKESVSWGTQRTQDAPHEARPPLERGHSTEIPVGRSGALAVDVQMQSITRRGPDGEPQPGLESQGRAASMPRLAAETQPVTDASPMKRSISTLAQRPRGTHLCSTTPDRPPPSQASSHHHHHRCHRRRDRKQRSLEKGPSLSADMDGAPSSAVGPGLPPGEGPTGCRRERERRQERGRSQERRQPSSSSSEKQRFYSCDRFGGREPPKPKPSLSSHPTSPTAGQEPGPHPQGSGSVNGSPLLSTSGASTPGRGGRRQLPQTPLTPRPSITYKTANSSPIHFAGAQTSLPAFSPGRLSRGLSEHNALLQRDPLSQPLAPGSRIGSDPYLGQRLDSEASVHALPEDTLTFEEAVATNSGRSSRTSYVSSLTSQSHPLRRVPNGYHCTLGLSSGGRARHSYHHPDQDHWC
T1 sequence (P54284 whole entry partner): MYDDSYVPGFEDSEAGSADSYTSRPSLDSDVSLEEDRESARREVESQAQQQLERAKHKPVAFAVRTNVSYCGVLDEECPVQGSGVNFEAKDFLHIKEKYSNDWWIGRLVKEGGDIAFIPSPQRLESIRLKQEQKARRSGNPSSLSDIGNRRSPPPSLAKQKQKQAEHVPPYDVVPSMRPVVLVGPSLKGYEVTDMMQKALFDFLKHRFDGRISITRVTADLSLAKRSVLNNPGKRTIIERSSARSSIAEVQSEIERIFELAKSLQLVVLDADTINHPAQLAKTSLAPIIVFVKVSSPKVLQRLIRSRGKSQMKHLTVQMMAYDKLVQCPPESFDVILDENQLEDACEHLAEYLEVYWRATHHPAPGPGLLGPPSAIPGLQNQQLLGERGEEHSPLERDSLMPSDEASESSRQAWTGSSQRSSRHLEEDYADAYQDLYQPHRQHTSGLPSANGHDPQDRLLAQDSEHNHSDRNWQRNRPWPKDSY
T1 sequence (P54289 25-956 partner limits assumed): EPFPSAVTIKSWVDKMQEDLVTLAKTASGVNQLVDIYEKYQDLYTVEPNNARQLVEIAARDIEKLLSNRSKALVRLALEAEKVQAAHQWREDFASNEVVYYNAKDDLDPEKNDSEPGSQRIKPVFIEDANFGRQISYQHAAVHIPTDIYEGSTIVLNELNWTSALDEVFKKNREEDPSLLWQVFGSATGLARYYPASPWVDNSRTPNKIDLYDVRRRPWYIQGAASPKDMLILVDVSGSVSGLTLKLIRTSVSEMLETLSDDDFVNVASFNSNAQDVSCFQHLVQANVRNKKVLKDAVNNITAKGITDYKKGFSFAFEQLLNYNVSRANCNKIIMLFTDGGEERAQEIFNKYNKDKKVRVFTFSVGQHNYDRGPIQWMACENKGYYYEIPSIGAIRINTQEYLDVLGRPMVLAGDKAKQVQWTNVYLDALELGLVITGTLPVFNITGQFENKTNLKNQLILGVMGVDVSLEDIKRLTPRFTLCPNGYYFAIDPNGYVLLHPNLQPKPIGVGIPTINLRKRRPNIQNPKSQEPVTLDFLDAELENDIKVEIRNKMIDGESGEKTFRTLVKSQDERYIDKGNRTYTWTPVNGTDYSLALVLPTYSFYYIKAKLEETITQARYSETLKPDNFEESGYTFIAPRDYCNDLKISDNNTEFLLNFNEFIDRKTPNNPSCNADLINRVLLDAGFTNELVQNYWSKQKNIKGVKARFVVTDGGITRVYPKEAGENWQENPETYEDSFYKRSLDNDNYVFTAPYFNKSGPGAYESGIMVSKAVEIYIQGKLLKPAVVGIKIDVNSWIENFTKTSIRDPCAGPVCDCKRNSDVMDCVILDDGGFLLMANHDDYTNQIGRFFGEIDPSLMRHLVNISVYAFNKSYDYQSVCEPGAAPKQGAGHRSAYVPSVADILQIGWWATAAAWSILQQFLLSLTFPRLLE
T1 sequence (P54289 957-1103 partner limits assumed): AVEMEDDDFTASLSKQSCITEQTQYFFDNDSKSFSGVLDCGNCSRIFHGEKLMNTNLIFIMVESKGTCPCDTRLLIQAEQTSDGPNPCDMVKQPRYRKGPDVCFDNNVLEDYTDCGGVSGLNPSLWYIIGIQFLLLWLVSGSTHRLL

This test has as its target T1, human Cav2.2 (Homo sapiens, UniProt Q00975).
T1 construct: cells endogenously expressing human Cav2.2; endogenous in cells; host or cells: IMR32 cells
The experiment in a line: Calcium flux (FLIPR, Calcium 4 dye) in IMR32 cells endogenously expressing human Cav2.2. The format is cell-based. As to conditions: 60 minute pre-incubation, 2 μM nifedipine to block L-type channels, depolarized with 80 mM KCl, 5 mM CaCl2, average of n≥2 runs unless marked *. The protocol:
Compounds were tested for effect on calcium flux in cells endogenously expressing human Cav2.2. Specifically, IMR32 cells endogenously expressing human Cav2.2 were assayed for Ca^2+ influx using a no-wash calcium indicator dye (Calcium 4 dye: Molecular Probes) and FLIPR technology (Lubin, M L; et al. Assay and Drug Development Technologies, 2006, 4(6), 689-694). The IMR32 cells were maintained in MEM media containing 10% (v/v) FBS, 1% (v/v) antibiotic/antimitotic, 1% (v/v) sodium pyruvate and 1% (v/v) MEM NEAA. Following dissociation in 0.05% (v/v) trypsin/EDTA, cells were seeded into black 1×96-well plates (Corning Cellbind) at a density of 1−1.2×10^5 cells/well and incubated in the maintenance media above for 48 hours at 37° C. Immediately prior to performing the assay the media was removed and cells were loaded for 1.5 hours with 1× Calcium 4 dye prepared in HBSS (137 mM NaCl, 5.4 mM KCl, 0.25 mM Na2HPO4, 0.44 mM KH2PO4, 1.3 mM CaCl2, 1 mM MgSO4, 4.2 mM NaHCO3) containing HEPES pH 7.4 at room temperature. After dye loading and a subsequent 60 minute pre-incubation with compounds (full log dilutions from 10 μM to 0.1 nM) in the presence of 1.3 mM CaCl2 and 2 μM nifedipine to block endogenous L-type channels, the external Ca^2+ concentration was increased to 5 mM CaCl2 and the cells concomitantly depolarized with 80 mM KCl to assay channel activity.
To determine the IC50 values, the percent inhibition of the compound at each concentration was determined relative to the activity in the absence of inhibitor, and data was fitted using non-linear regression sigmoidal dose response curve analysis with GraphPad Prism®. Unless otherwise indicated (*), the reported values are average values from at least two runs (i.e., n≧2).
Regarding `O=C(C(O)c1cccc(C(F)(F)F)c1)N1CCC(=O)N2C[C@H](Oc3cnc(C4CC4)cn3)C[C@H]2C1` (stereo partly drawn) [Example 40, (8R,9aS)-8-[(5-cyclopropylpyrazin-2-yl)oxy]-2-{hydroxy[3-(trifluoromethyl)phenyl]acetyl}octahydro-5H-pyrrolo[1,2-a][1,4]diazepin-5-one], the half-inhibitory concentration (IC50) came out at 4.7 µM.

Consider `O=C1[C@H](Oc2ccc(C(F)(F)F)cn2)C[C@H]2CN(S(=O)(=O)c3ccc(C(F)(F)F)cc3)CCCN12` [Example 6, (8R,9aS)-2-{[4-(trifluoromethyl)phenyl]sulfonyl}-8-{[5-(trifluoromethyl)pyridin-2-yl]oxy}octahydro-7H-pyrrolo[1,2-a][1,4]diazepin-7-one], for which the IC50 is 0.91 µM.

Turning to `O=C(c1ccc(F)cc1)N1CCCN2C[C@H](Oc3cnc(C4CC4)cn3)C[C@H]2C1` [Example 8, [(8R,9aS)-8-[(5-cyclopropylpyrazin-2-yl)oxy]hexahydro-1H-pyrrolo[1,2-a][1,4]diazepin-2(3H)-yl](4-fluorophenyl)methanone], the IC50 was found to be 3.04 µM.

Take `O=C1[C@@H](Oc2ccc(C(F)(F)F)cn2)C[C@H]2CN(S(=O)(=O)c3cccc(C(F)(F)F)c3)CCCN12` [Example 3, (8S,9aS)-2-{[3-(trifluoromethyl)phenyl]sulfonyl}-8-{[5-(trifluoromethyl)pyridin-2-yl]oxy}octahydro-7H-pyrrolo[1,2-a][1,4]diazepin-7-one]: the IC50 was found to be 1.25 µM.

Consider `O=C1CCN(c2ccc(C(F)(F)F)cn2)C[C@H]2C[C@@H](Oc3cnc(C4CC4)cn3)CN12` [Example 55, (8R,9aR)-8-[(5-cyclopropylpyrazin-2-yl)oxy]-2-[5-(trifluoromethyl)pyridin-2-yl]octahydro-5H-pyrrolo[1,2-a][1,4]diazepin-5-one], for which the IC50 was found to be 3.43 µM.

With `O=C1CCN(c2ccc(C(F)(F)F)cn2)C[C@H]2C[C@H](Oc3cnc(C4CC4)cn3)CN12` [Example 46, (8S,9aR)-8-[(5-cyclopropylpyrazin-2-yl)oxy]-2-[5-(trifluoromethyl)pyridin-2-yl]octahydro-5H-pyrrolo[1,2-a][1,4]diazepin-5-one], the IC50 stood at 5.07 µM.

On to `O=C1CCN(S(=O)(=O)c2ccc(C(F)(F)F)cc2)C[C@H]2C[C@@H](Oc3cnc(C4CC4)cn3)CN12` [Example 58, (8R,9aR)-8-[(5-cyclopropylpyrazin-2-yl)oxy]-2-{[4-(trifluoromethyl)phenyl]sulfonyl}octahydro-5H-pyrrolo[1,2-a][1,4]diazepin-5-one], for which the half-maximal inhibitory concentration (IC50) was found to be 3.75 µM.

As to `O=C(c1cccc(C(F)(F)F)c1)N1CCC(=O)N2C[C@H](Oc3cnc(C4CC4)cn3)C[C@@H]2C1` [Example 57, (8R,9aR)-8-[(5-cyclopropylpyrazin-2-yl)oxy]-2-[3-(trifluoromethyl)benzoyl]octahydro-5H-pyrrolo[1,2-a][1,4]diazepin-5-one], the IC50 is 11.2 µM.

Regarding `O=C1CCN(S(=O)(=O)c2ccc(C(F)(F)F)cc2)C[C@@H]2C[C@@H](Oc3cnc(C4CC4)cn3)CN12` [Example 29, (8R,9aS)-8-[(5-cyclopropylpyrazin-2-yl)oxy]-2-{[4-(trifluoromethyl)phenyl]sulfonyl}octahydro-5H-pyrrolo[1,2-a][1,4]diazepin-5-one], the IC50 was 0.49 µM.

Consider `O=C1CCN(S(=O)(=O)c2ccc(C(F)(F)F)cc2)C[C@@H]2C[C@@H](Oc3ccc(C(F)(F)F)cn3)CN12` [Example 52, (8R,9aS)-2-{[4-(trifluoromethyl)phenyl]sulfonyl}-8-{[5-(trifluoromethyl)pyridin-2-yl]oxy}octahydro-5H-pyrrolo[1,2-a][1,4]diazepin-5-one], for which the IC50 was determined as 1.26 µM.

Turning to `O=C1[C@@H]2C[C@@H](Oc3cnc(C4CC4)cn3)CN2CCCN1c1cccc(C(F)(F)F)c1` [Example 27, (8R,9aS)-8-[(5-cyclopropylpyrazin-2-yl)oxy]-2-[3-(trifluoromethyl)phenyl]octahydro-1H-pyrrolo[1,2-a][1,4]diazepin-1-one], the IC50 came to 10 µM.
